In EP0974351A2, “Medicament for preventing and treating gastrointestinal damage” (JOUVEINAL, priority 1998, dated 2000):

Legend:
PGE2 = PGE2 content of gastric mucosa biopsies (ELISA) in indomethacin-treated rats; type: in vivo, Male CD-Sprague-Dawley rats; conditions: for effect on the inhibition of PGE2 caused by indomethacin: any dose tested (1-200 mg/kg orally)
Description: Male CD-Sprague-Dawley rats (132-202 g) were received and housed in a room with controlled temperature, humidity, and 12-hour light/dark cycle. After a period of acclimatization of 4 to 5 days, and after a 24-hour food fasting period, animals were used for the study described below.
Gabapentin or pregabalin (CI-1008) were dissolved in water and administered orally at the following doses: 1, 10, 100, and 200 mg/kg in a volume of 1 mL. Control animals were dosed with an equal volume of vehicle (1 mL of water). Sixty minutes later, all the animals received 1 mL of a solution of 80 mg/kg indomethacin dissolved in 5% aqueous NaHCO3. Control animals received 1 mL of 5% aqueous NaHCO3 orally. Experimental groups were as follows:
Animals were sacrificed by decapitation 4 hours post-indomethacin administration. The stomach was removed and opened along the greater curvature and its image digitized and stored on an optical disk using a 486-based PC computer equipped with CUE3 system imaging analysis software (Olympus Corp., Marietta, Georgia, USA). Two 6-mm biopsies were taken from a constant region of the gastric mucosa located in each side of the glandular portion of the stomach and their PGE2 content was measured using a commercially available ELISA kit (Assay Designs Inc., Ann Arbor, Michigan, USA). The presence of gastric damage was determined using the retrieved electronic image, and the extent of damage was measured using the CUE3 imaging software. Data are expressed as a percent of gastric area damaged and the PGE2 content (pg/mL).

[1] = tested on: Inflammatory Colonic Pain Induced by Intramural Injection of Formalin 5%; test: Inflammatory colonic pain induced by intramural injection of formalin 5% in rats; type: in vivo, Adult female Sprague-Dawley rats; conditions: for % Antinociception: intracolonic formalin 5%, 50 µL/rat; for pain score induced by intracolonic formalin (in words): gabapentin 100, 300, 500 mg/kg sc, CI-1008 100, 200 mg/kg sc
Description: The GABA analogs were evaluated in another model to determine their effect on inflammatory visceral pain.
Administration of formalin into the wall of the rat colon causes acute inflammation and visceral pain. The aim of this study was to evaluate the antinociceptive activity of gabapentin and CI-1008 in visceral pain induced by colonic intrapariental injection of formalin.
Adult female Sprague-Dawley rats weighing 240 to 260 g were used in the study. The animals were housed three per cage in a regulated environment (20 ± 1°C 50 ± 5% humidity, with light 8:00 AM to 8:00 PM) prior to use in the test.
Each test animal was placed in a transparent plastic cage (27 x 43 x 25 cm) with a layer of wood shavings on the floor. Drinking water was available. Cages were placed in such a way that visual interaction between animals was avoided. A mirror was positioned behind each cage to improve the recording of behaviors. Each animal was initially allowed 20 minutes to get used to its surroundings. Anesthesia was then achieved by using isofurane (starting 4%, then 1.5% in a mixture of […] nitrous oxide and 1:3 oxygen). The animal was suspended by its tail, the rectum was gently emptied with a cotton-capped stalk, and a coloscope was inserted through the anus. This designed endoscope has a lateral slot that allows for puncture of the intestinal wall under visual control, using a 51-mm-long needle (26 ga), at about 35 mm from the anal margin. Injected solutions were either 50 µL 5% formalin, or the same volume of isotonic saline. Animals were allowed to recover from anesthesia as soon as the injection was completed (about 1 minute), and the observation period was started and continued for 2 hours. Thirty minutes after the end of the observation test, an IV injection of Evans Blue (1%) was administered, and 30 minutes later the animal was sacrificed. The abdomen was opened. The injection site and the zone of diffusion of Evans Blue were recorded by image analysis software. Data from rats in which the spread of the dye was not restricted to the sigmoid wall were discarded.
As listed in increasing order of pain intensity, these behaviors were: (i) abdominal licking and nibbling (L), (ii) body stretching, i.e., backward extension of the hind limbs (B), (iii) contraction of the flanks, sometimes evolving to a stretching attitude (C), and (iv) whole body contraction, the rat standing with its back curved, occasionally further graded according to the duration of the given episode: W1 for less than 30 seconds, W2 between 30 seconds and 1 minute, and W3 for more than 1 minute. Behaviors were recorded for each animal throughout the 2-hour test on individual charts. A pain score (S) was then calculated for each of the successive 15-minute periods, using the following formula: S = 1L + 2B + 3C + 4W1 + 5W2 + 6W3 [formula] whereby the pain score was proportional to (i) the number of episodes of each selected behavior, and (ii) the coefficient, from 1 to 6, attributed to the given behaviors.
All compounds were dissolved in saline. Subcutaneous injection of vehicle was given in a volume of […]. Formalin was purchased from Prolabo.
Statistical significance between each group was determined by using a one-way ANOVA followed by Student's unpaired t-test. Differences were considered statistically significant at p <0.05.
Hyperalgesia is induced by intramural injection of formalin (5%, 50 µL/rat) into the colonic wall in unfasted female Sprague-Dawley rats. Gabapentin and CI-1008 were tested at 100, 300, 500 and 100, 200 mg/kg sc, respectively. […] The maximal inhibitory effect was observed after 500 mg/kg of gabapentin and 200 mg/kg of CI-1008.

[2] = tested on: Colonic Threshold in Normal Rats; test: Colonic distension pain threshold in normal rats; type: in vivo, Male Sprague-Dawley rats; conditions: normal rats, control 43.33, NS vs control
Description: Male Sprague-Dawley rats weighing 340 to 400 g were used in the study. The animals were housed three per cage in a regulated environment (20 ± 1°C, 50 ± 5% humidity, with light 8:00 AM to 8:00 PM). Under anethesia (ketamine 80 mg/kg i.p.; acepromazin 12 mg/kg i.p.), TNBS (50 mg/kg), or saline (1.5 mL/kg) was injected into the proximal colon (1 cm from the cecum). After the surgery, animals were individually housed in the regulated environment.
A balloon catheter (5-6 cm length) was inserted through the anus into the colon and kept in position (tip of balloon 5 cm from the anus) by taping the catheter to the base of the tail. The balloon was progressively inflated by step of 5 mm Hg, from 0 to 75 mm Hg, each step of inflation lasting 30 seconds. Each cycle of colonic distension was controlled by a standard barostat. The threshold corresponds to the pressure which produced the first abdominal contraction, at which time the cycle of distension was discontinued. To determine the colonic threshold, four cycles of distension were performed on the same animal.
In a first series of experiments, a group of eight rats treated with saline were subjected to a colonic distension session.
All test compounds were dissolved in saline except TNBS. TNBS was dissolved in EtOH 30% (w/v). Subcutaneous injection of vehicle was given in a volume of […].
Statistical significance between each group was determined using a one-way ANOVA followed by Student's unpaired t-test. Differences were considered statistically significant at p <0.05.

[3] = 1 mg/kg orally before indomethacin 80 mg/kg, control 9525.27 ± 156.00, indomethacin + vehicle 1908.03 ± 72.31
[4] = 10 mg/kg orally before indomethacin 80 mg/kg, indomethacin + vehicle 1908.03 ± 72.31
[5] = 100 mg/kg orally before indomethacin 80 mg/kg, indomethacin + vehicle 1908.03 ± 72.31
[6] = 200 mg/kg orally before indomethacin 80 mg/kg, indomethacin + vehicle 1908.03 ± 72.31

For `NCC1(CC(=O)O)CCCCC1` [Gabapentin, 1-(aminomethyl)-cyclohexane acetic acid], which “PGE2 Synthesis” value (PGE2; [3]) is on record?
Its value is 1783.66 ± 73.47 pg/mL.

What about the “PGE2 Synthesis” value (PGE2; [4]) of the same molecule?
The value was 3065.78 ± 137.19 pg/mL.

What about the “PGE2 Synthesis” value (PGE2; [5]) of the same molecule?
The value was 2997.90 ± 226.80 pg/mL.

And the “PGE2 Synthesis” value (PGE2; [6])?
Its value is 2615.74 ± 165.36 pg/mL.

And the “effect on the inhibition of PGE2 caused by indomethacin” value (PGE2)?
The value was “Neither gabapentin nor CI-1008, at any dose tested, were able to significantly modify this effect”.

What about the “% Antinociception” value ([1]; 0.3 mg/kg sc (so in the source)) of the same molecule?
Its value is -7.73%.

And the “% Antinociception” value ([1]; 100 mg/kg sc)?
Its value is 13.62%.

And the “% Antinociception” value ([1]; 300 mg/kg sc)?
The value was 55.07%.

And the “% Antinociception” value ([1]; 500 mg/kg sc)?
Its value is 88.01%.

What about the “pain score induced by intracolonic formalin (in words)” value [1] of the same molecule?
Its value is “significantly and dose-dependently decreased”.

And the “Colonic Threshold” value ([2]; 500 mg/kg sc)?
Its value is 43.75 mm Hg.

How did the “PGE2 Synthesis” value (PGE2; [3]) turn out when `CC(C)C[C@H](CN)CC(=O)O` [CI-1008, (S)-3-(aminomethyl)-5-methylhexanoic acid] was run?
Its value is 1209.95 ± 105.50 pg/mL.

What about the “PGE2 Synthesis” value (PGE2; [4]) of the same molecule?
Its value is 2666.16 ± 307.45 pg/mL.

What about the “PGE2 Synthesis” value (PGE2; [5]) of the same molecule?
Its value is 3994.45 ± 318.95 pg/mL.

What about the “PGE2 Synthesis” value (PGE2; [6]) of the same molecule?
Its value is 3288.92 ± 407.43 pg/mL.

And the “effect on the inhibition of PGE2 caused by indomethacin” value (PGE2)?
Its value is “Neither gabapentin nor CI-1008, at any dose tested, were able to significantly modify this effect”.

And the “% Antinociception” value ([1]; 100 mg/kg sc)?
Its value is 18.55%.

What about the “% Antinociception” value ([1]; 200 mg/kg sc) of the same molecule?
The value was 70.81%.

What about the “pain score induced by intracolonic formalin (in words)” value [1] of the same molecule?
Its value is “significantly and dose-dependently decreased”.

What about the “Colonic Threshold” value ([2]; 200 mg/kg sc) of the same molecule?
The value was 46.41 mm Hg.
